Data set [1] has as its system lymphocytic leukemia P-388. Description: Anti-tumor activity against lymphocytic leukemia P-388 (i.p. implanted, single i.p. dose). Format: in vivo, male CDF mice. To be noted: Mus musculus, P388, ip, read-out: T/C. On the procedure: The experiment was carried out in the following manner.
Five male CDF mice each having a weight of about 22 g were used for each group as test animals, and 1×10^6 cells of lymphocytic leukemia P-388 tumor were implanted intraperitoneally into the test animals. After 24 hours, 0.2 ml of phosphate-buffered physiological saline containing a test compound was administered once intraperitoneally. The life-prolongingeffect of the compound was represented by T/C.

A short description of data set [2]: Acute toxicity (single i.p. administration). To be noted: mouse, in vivo, ip, ddy mice, method of Behrens-Kolber. Here is the method: Five ddy mice were used for each group as test animals, and each test compound was administered once intraperitoneally to the respective groups of animals. LD50 was calculated from the death-rate of each group according to the method of Behrens-Kolber.

The subject of data set [3] is lymphocytic leukemia P-388. To be noted: in words; Japanese Published Unexamined Patent Application No. 170189/82; cited from earlier work.
Data set [4] relates to a variety of bacteria. Particulars: in words; Japanese Published Unexamined Patent Application No. 170189/82; cited from earlier work.
The conditions of data set [5]: in words; Japanese Published Unexamined Patent Application No. 210086/84; cited from earlier work.
Setting [6] is: dose 25 mg/kg, single i.p., 24 hours after implantation of 1×10^6 P-388 cells, life-prolonging effect.
Where [7] appears, read: dose 12.5 mg/kg, single i.p., 24 hours after implantation of 1×10^6 P-388 cells, life-prolonging effect.

Molecules are shown by their SMILES. Like-named read-outs stand apart in the source and are kept apart here. Where only a bound is given, the exact number is not on record here.

By LD50 is commonly meant the dose at which mortality reaches 50%. A high value points to lower toxicity. Turning to `COc1ccc(C#N)c2c1C(CO)N1C(C#N)C3CC(C(=O)O)C(C1C2)N3C` (stereo not shown) [Compound 9], the response vs control in vivo at 25 mg/kg in data set [1] (24 h) amounted to 140%. Also, the LD50 in data set [2] was greater than 100 mg/kg.
With `COc1cccc2c1C1COC3C4CC(C(=O)O)C(C(C2)N13)N4C` (stereo not shown) [DC-52], the “anti-tumor activity against lymphocytic leukemia P-388 and the like” value in data set [3] is “has anti-tumor activity against lymphocytic leukemia P-388 and the like”. Moreover, the antibacterial activity entry in data set [4] is “shows antibacterial activity against a variety of bacteria”.
`COc1ccc(I)c2c1C1COC3C4CC(C(=O)O)C(C(C2)N13)N4C` (stereo not shown) [Compound 6]: in data set [1] (setting [6]), the response vs control in vivo at 25 mg/kg was determined as 124%.
Consider `COc1ccc(Cl)c2c1C(CO)N1C(C#N)C3CC(C(=O)O)C(C1C2)N3C` (stereo not shown) [Compound 1], for which the response vs control in vivo at 12.5 mg/kg in data set [1] (24 h) was 123%. In addition, the LD50 in data set [2] was 50 mg/kg.
On to `COc1cccc2c1C(CO)N1C(C#N)C3CC(C(=O)O)C(C1C2)N3C` (stereo not shown) [DX-52-1], for which the anti-tumor activity entry in data set [5] is “having anti-tumor activity”.
In the case of `COc1ccc(C=O)c2c1C(CO)N1C(C#N)C3CC(C(=O)O)C(C1C2)N3C` (stereo not shown) [Compound 7], the response vs control in vivo at 200 mg/kg in data set [1] (dose 200 mg/kg, single i.p., 24 hours after implantation of 1×10^6 P-388 cells, life-prolonging effect) was determined as 138%.
With `COc1ccc(O)c2c1C(CO)N1C(C#N)C3CC(C(=O)O)C(C1C2)N3C` (stereo not shown) [Compound 11], the response vs control in vivo at 25 mg/kg in data set [1] (setting [6]) was 142%.
In turn, `COc1ccc(Br)c2c1C(CO)N1C(C#N)C3CC(C(=O)O)C(C1C2)N3C` (stereo not shown) [Compound 3] came in with an LD50 in data set [2] of 50 mg/kg.
On to `COc1ccc(C#N)c2c1C1COC3C4CC(C(=O)O)C(C(C2)N13)N4C` (stereo not shown) [Compound 10], for which, in data set [2], the LD50 is greater than 50 mg/kg.
On to `COc1ccc(I)c2c1C(CO)N1C(C#N)C3CC(C(=O)O)C(C1C2)N3C` (stereo not shown) [Compound 5], for which, in data set [1] (24 h), the response vs control in vivo at 50 mg/kg is 131%. For the same compound, the LD50 in data set [2] is 100 mg/kg.
Consider `COc1ccc(Cl)c2c1C1COC3C4CC(C(=O)O)C(C(C2)N13)N4C` (stereo not shown) [Compound 2], for which, in data set [1] (setting [7]), the response vs control in vivo at 12.5 mg/kg worked out at 140%.
Same read-out and setting: under `COc1ccc(Br)c2c1C1COC3C4CC(C(=O)O)C(C(C2)N13)N4C` (stereo not shown) [Compound 4] stands 150%.
